Data from ChEMBL document CHEMBL3351629, “Modulators of the nuclear receptor retinoic acid receptor-related orphan receptor-γ (RORγ or RORc)” (J Med Chem, 2014).

How the values were obtained:
[1] = molecular target: T1, Nuclear receptor ROR-gamma (Mus musculus) (UniProt P51450); test: Activity at RoRc in mouse CD4+ T cells assessed as inhibition of IL-17 production at 10 uM; type: cell-based; conditions: T-cell
T1 sequence (whole entry): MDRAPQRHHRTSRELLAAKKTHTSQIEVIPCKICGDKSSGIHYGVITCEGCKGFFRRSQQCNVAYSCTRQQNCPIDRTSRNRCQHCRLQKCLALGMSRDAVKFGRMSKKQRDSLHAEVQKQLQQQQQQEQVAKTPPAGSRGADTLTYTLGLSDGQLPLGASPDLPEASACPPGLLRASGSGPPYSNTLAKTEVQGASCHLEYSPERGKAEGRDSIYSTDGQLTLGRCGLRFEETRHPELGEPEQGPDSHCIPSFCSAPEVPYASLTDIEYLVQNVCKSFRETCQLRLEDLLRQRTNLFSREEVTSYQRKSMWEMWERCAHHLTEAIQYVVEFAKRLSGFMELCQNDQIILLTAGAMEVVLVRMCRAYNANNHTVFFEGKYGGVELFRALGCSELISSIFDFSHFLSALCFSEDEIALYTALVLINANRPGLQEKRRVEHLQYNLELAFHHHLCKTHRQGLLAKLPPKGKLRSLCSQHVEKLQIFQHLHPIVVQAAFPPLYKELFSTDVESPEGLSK

[2] = molecular target: T2, Nuclear receptor ROR-gamma (Homo sapiens, UniProt P51449); test: Agonist activity at RoRc-LBD (unknown origin) expressed in HEK293 cells assessed as transcriptional activity by GAL4 reporter assay; type: functional, cell-based
T2 sequence (P51449 whole entry): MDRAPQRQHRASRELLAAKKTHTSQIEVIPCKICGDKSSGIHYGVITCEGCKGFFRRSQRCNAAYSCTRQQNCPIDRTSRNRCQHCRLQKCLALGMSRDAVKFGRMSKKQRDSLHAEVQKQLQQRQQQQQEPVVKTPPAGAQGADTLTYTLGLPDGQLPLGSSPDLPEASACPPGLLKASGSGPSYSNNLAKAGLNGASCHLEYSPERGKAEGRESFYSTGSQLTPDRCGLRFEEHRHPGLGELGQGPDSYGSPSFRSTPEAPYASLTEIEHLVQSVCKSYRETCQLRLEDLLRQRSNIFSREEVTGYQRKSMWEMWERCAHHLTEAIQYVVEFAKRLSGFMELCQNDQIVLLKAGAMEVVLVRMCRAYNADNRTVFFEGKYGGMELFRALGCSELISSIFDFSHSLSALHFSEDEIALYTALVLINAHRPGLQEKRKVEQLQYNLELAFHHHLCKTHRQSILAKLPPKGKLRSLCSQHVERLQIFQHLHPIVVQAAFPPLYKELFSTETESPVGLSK

[3] = molecular target: T2, Nuclear receptor ROR-gamma; test: Inverse agonist activity at human RoRc-LBD fusion protein with GST expressed in […] cells assessed as SRC1 coactivator peptide recruitment; type: functional, cell-based
[4] = molecular target: T2, Nuclear receptor ROR-gamma; test: (§1) Inverse agonist activity at human RoRc in human skin model assessed as suppression of IL-17A level relative to control; type: functional
[5] = molecular target: T2, Nuclear receptor ROR-gamma; test: Inverse agonist activity at human RoRc in human skin model assessed as suppression of IL-17F level relative to control; type: functional
[6] = molecular target: T2, Nuclear receptor ROR-gamma; test: Inverse agonist activity at human RoRc-LBD expressed in cells assessed as SRC1 to 2 coactivator peptide recruitment; type: functional, cell-based
[7] = molecular target: T2, Nuclear receptor ROR-gamma; test: Agonist activity at RoRc-LBD (unknown origin) expressed in Drosophilla S2 cells assessed as transcriptional activity by GAL4 reporter assay; type: functional, cell-based
[8] = molecular target: T2, Nuclear receptor ROR-gamma; test: Agonist activity at human RoRc-LBD expressed in CHO cells assessed as transcriptional activity by GAL4 reporter assay; type: functional, cell-based
[9] = molecular target: T3, Nuclear receptor ROR-gamma (Mus musculus, UniProt P51450); test: Activity at RoRc in mouse CD4+ T cells assessed as inhibition of IL-17 production; type: cell-based, T-cell
T3 sequence (P51450 whole entry): T1 sequence (whole entry)

[10] = molecular target: T2, Nuclear receptor ROR-gamma; test: Activity at human RoRc in human Jurkat cells assessed as inhibition of IL-17 promoter; type: functional, cell-based
[11] = molecular target: T4, Nuclear receptor ROR-gamma (Homo sapiens) (UniProt P51449); test: as §1; type: functional; conditions: concentration not given here
T4 sequence (whole entry): T2 sequence (P51449 whole entry)

[12] = molecular target: T4, Nuclear receptor ROR-gamma (Homo sapiens); test: Inverse agonist activity at human RoRc in human skin model assessed as suppression of IL-22 level relative to control; conditions: concentration not given here

Compound CC(C)(C)n1ncc(-c2nc(CC(=O)NCC3CCOCC3)cs2)c1-c1cc2ccccc2s1 has an inhibition [1] of 98%.
Compound CO[C@@H]1Cc2ccccc2CN(S(=O)(=O)c2cccc3cccnc23)[C@@H]1Cc1ccccc1 has an EC50 [2] of less than 500 nM and an EC50 [3] of less than 500 nM.
NC(=O)c1ccc2c(c1)CCN2Cc1ccc(C(O)(C(F)(F)F)C(F)(F)F)cc1 was tested, and the EC50 [4] was less than 10000 nM and the EC50 [5] was less than 10000 nM.
Cc1ccc(C(NC(=O)Cc2ccc(N(CC(=O)O)Cc3c(C)noc3C)cc2)c2ccccc2)cc1 (stereo not drawn) gave an IC50 [6] of 1 nM.
O=C(O)c1ccc(-c2nn(C(=O)c3c(Cl)cccc3C(F)(F)F)c3cc(C(=O)NCCO)ccc23)cc1 was tested, and the EC50 [3] was less than 50 nM.
In the case of COC(=O)[C@H]1CC[C@]2(O)[C@@H]3CC[C@@H]4C[C@@H](O[C@H]5C[C@H](O)[C@H](O[C@H]6C[C@H](O)[C@H](O[C@H]7C[C@H](O)[C@H](O)[C@@H](C)O7)[C@@H](C)O6)[C@@H](C)O5)CC[C@]4(C)[C@H]3C[C@@H](O)[C@]12C, the EC50 [7] is reported as 1000 nM.
In the case of Cc1ccc(NC(=O)C[C@H](CC(=O)O)c2noc([C@H]3C[C@@H](CC(C)C)C3)c2C2CC2)c(Cl)c1, the EC50 [8] is reported as 320 nM.
In the case of CCn1c2ccccc2c2cc(NC(=O)CC(C)(O)CCOc3ccc(C#N)c(Cl)c3)ccc21 (stereo not drawn), the inhibition [1] is reported as 96%.
CCS(=O)(=O)c1ccc(CC(=O)Nc2nc(-c3cc(Cl)ccc3Cl)cs2)cc1 was tested, and the EC50 [3] was 1000 nM.
With CCS(=O)(=O)c1ccc(CC(=O)Nc2ccc3c(ccn3CCc3ccc(Cl)cc3Cl)c2)cc1 the EC50 [9] was 9 nM.
Cc1ccc(C(NC(=O)Cc2ccc3oc(C(O)c4c(C)noc4C)cc3c2)c2ccccc2)c(C)c1 (stereo not drawn) showed an IC50 [6] of 33 nM.
Cc1c(C(=O)NC2CCOCC2)cc(-c2cc(C(C)(C)C)c3c(c2)C2(CCO3)CC2)n1CC1CCCCC1 gave an EC50 [2] of 40 nM.
OC(c1ccc(CN2CCCc3cc(-c4cn[nH]c4)ccc32)cc1)(C(F)(F)F)C(F)(F)F showed an EC50 [4] of less than 10000 nM and an EC50 [5] of less than 10000 nM.
Cc1c(S(N)(=O)=O)cc(-c2cn(S(=O)(=O)N3CCCCC3)c3ccccc23)n1CC1CCCCC1 gave an EC50 [2] of less than 500 nM and an EC50 [3] of less than 500 nM.
O=S(=O)(c1cc(F)ccc1OC(F)(F)F)N1Cc2nccnc2-n2ccnc2[C@H]1Cc1ccccc1 gave an EC50 [2] of less than 500 nM and an EC50 [3] of less than 500 nM.
Compound Cc1c(S(=O)(=O)NCCO)cc(-c2cc(C(C)(C)C)cc(C(C)(C)C)c2)n1CC1CCCCC1 has an EC50 [2] of less than 500 nM and an EC50 [3] of less than 500 nM.
CCS(=O)(=O)c1ccc(CC(=O)Nc2ccc(-c3ccccc3)c(C(C)C)c2)cc1 was tested, and the EC50 [10] was 1 nM.
With CCS(=O)(=O)c1ccc(CC(=O)Nc2nc(-c3cccc(Cl)c3)c(C(=O)c3ccccc3Cl)s2)cc1 the EC50 [9] was 158 nM, the EC50 [10] was 10 nM and the EC50 [3] was 8 nM.
In the case of Cc1ccc(NC(=O)C[C@H](CCC(=O)O)c2nnn([C@H]3C[C@@H](CC(C)(C)C)C3)c2C(F)(F)F)c(C)c1, the EC50 [8] is reported as 53 nM.
Compound CCc1ccc(N(CC(C)C)S(=O)(=O)c2ccc(C(O)CN3CCOCC3)c(CO)c2)cc1 (stereo not drawn) has an inhibition [11] of 83%, an EC50 [3] of 32 nM and an inhibition [12] of 60%.
In the case of O=C(Nc1ccc2cnn(S(=O)(=O)c3cccc(C(F)(F)F)c3)c2c1)c1c(F)cccc1C(F)(F)F, the IC50 [2] is reported as 15000 nM and the IC50 [6] is reported as less than 15000 nM.
Work on Cc1cnc(C(CCC(C)C)NC(=O)Cc2ccc3oc(C(O)c4c(C)noc4C)cc3c2)c(C)c1 (stereo not drawn) yielded an IC50 [6] of 1 nM.
In the case of Cc1c(S(N)(=O)=O)cc(-c2cc(C(C)(C)C)cc(C(C)(C)C)c2)n1CC1CCCCC1, the EC50 [2] is reported as less than 500 nM and the EC50 [3] is reported as less than 500 nM.
Compound COc1ccccc1S(=O)(=O)N1Cc2ccccc2COCC1Cc1ccccc1 (stereo not drawn) has an EC50 [3] of less than 500 nM.
Compound Cc1ccc(NC(=O)C[C@H](CCC(=O)O)c2noc([C@H]3C[C@@H](CC(C)(C)C)C3)c2C2CC2)c(Cl)c1 has an EC50 [8] of 2300 nM.
Compound CN1c2cc3c(cc2N=C(c2ccc(C(=O)O)cc2)c2ccc4ccccc4c21)C(C)(C)CCC3(C)C has an EC50 [3] of 4000 nM.
